Results as given in publication PMC5971037, “Synthesis and evaluation of antimicrobial, antitubercular and anticancer activities of 2-(1-benzoyl-1H-benzo[d]imidazol-2-ylthio)-N-substituted acetamides” (Chemistry Central Journal, 2018).
pIC50: −log10 of the molar value. In brackets after ≈: the same amount, converted by molar mass.

Legend:
B. cereus [1] = assay: Tube dilution MIC; conditions: Bacillus cereus, 24 h, read-out: MIC B. cereus
C. albicans [2] = assay: microbe, parasite or virus in culture; conditions: Candida albicans, 48 h, read-out: MIC C. albicans
S. aureus [3] = assay: Tube dilution MIC; conditions: Staphylococcus aureus, 24 h, read-out: MIC S. aureus
[4] = molecular target: mycobacterial isocitrate lyase (Mycobacterium tuberculosis, UniProt P9WKK7); assay: Mycobacterial isocitrate lyase (ICL) assay; format: biochemical, M. tuberculosis H37Rv; conditions: read-out: Percent inhibition of enzyme, M. ICL activity
mycobacterial isocitrate lyase, sequence (P9WKK7 whole entry): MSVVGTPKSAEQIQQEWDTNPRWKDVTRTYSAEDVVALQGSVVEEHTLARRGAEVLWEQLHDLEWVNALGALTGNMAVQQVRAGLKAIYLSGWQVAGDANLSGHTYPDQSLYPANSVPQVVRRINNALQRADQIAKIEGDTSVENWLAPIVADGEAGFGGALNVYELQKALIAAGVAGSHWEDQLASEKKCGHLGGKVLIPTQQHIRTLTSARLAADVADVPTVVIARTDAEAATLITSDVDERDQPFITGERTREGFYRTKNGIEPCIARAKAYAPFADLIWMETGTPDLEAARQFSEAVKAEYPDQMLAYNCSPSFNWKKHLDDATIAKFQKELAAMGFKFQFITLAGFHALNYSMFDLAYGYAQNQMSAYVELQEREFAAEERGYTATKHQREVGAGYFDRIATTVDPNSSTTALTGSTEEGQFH
Description: The compounds found potent in in vivo evaluation were assayed for inhibition of mycobacterial enzymes viz., isocitrate lyase, pantothenate synthetase and chorismate mutase.
Isocitrate lyase activity was assayed according to the protocol reported by Dixon and Kornberg (glyoxylate phenyl hydrazone formation) at 10 μM of the compounds.

M. tuberculosis H37Rv [5] = assay: Minimum lethal concentration (MLC); format: cell-based; conditions: Mycobacterium tuberculosis, NA = no activity, read-out: MLC against M. tuberculosis H37Rv
M. tuberculosis H37Rv [6] = assay: MIC by microplate alamar blue assay; format: cell-based; conditions: Mycobacterium tuberculosis, NA = no activity, read-out: MIC against M. tuberculosis H37Rv
[7] = system: HCT116 (human colorectal) cell line; assay: Sulforhodamine-B (SRB) cytotoxicity assay; format: cell-based; conditions: HCT-116, read-out: IC50 HCT116
[8] = system: MCF7 (human breast cancer) cell line; assay: Sulforhodamine-B (SRB) cytotoxicity assay; format: cell-based; conditions: MCF7, read-out: IC50 MCF7
A. niger [9] = assay: microbe, parasite or virus in culture; conditions: Aspergillus niger, 168 h, read-out: MIC A. niger
E. coli [10] = assay: Tube dilution MIC; conditions: Escherichia coli, 24 h, read-out: MIC E. coli
C. albicans [11] = assay: MFC by subculturing; format: cell-based; conditions: Candida albicans, read-out: MFC C. albicans
Description: (§1) The minimum bactericidal concentration (MBC) and minimum fungicidal concentration (MFC) of the synthesized benzimidazole derivatives was determined by subculturing 100 µl of culture from each tube that remained clear in MIC determination onto sterilized petri-plates containing fresh agar medium. The petri-plates were incubated and analyzed for microbial growth visually.

A. niger [12] = assay: MFC by subculturing; format: cell-based; conditions: Aspergillus niger, read-out: MFC A. niger
Description: as §1

B. cereus [13] = assay: MBC by subculturing; format: cell-based; conditions: Bacillus cereus, read-out: MBC B. cereus
Description: as §1

E. coli [14] = assay: MBC by subculturing; format: cell-based; conditions: Escherichia coli
Description: as §1

B. subtilis [15] = assay: MBC by subculturing; format: cell-based; conditions: Bacillus subtilis, read-out: MBC B. subtilis
Description: as §1

S. aureus [16] = assay: MBC by subculturing; format: cell-based; conditions: Staphylococcus aureus
Description: as §1

S. typhi [17] = assay: MBC by subculturing; format: cell-based; conditions: Salmonella enterica, read-out: MBC S. typhi
Description: as §1

[18] = system: M. tuberculosis H37Rv (NCFT/TB/537); assay: Well diffusion susceptibility test (zone of inhibition); format: cell-based; conditions: Mycobacterium tuberculosis, 672 h, read-out: Diameter of zone of inhibition against H37Rv (NCFT/TB/537), wells of 8 mm, 50 µg/ml test compound, 25 µg/ml standard drug, 4 weeks, NA = no activity
[19] = In vivo LD50, ED50 and toxic dose in mice models; conditions: mouse, dose that killed 50% of the mice population within the group
Description: The LD50 and ED50 were determined for the active compounds in mice models infected with Mycobacterium H37Rv (Table 4). […] Thus, ED50 of 1.34 mg/kg was considered safe for each of the compounds. It was observed that this dose was effective and safe for mice in different groups before infecting the mice models with specific TB bacteria as no mortality of any single animal was recorded.
The LD50 (lethal dose) and ED50 (optimum/effective dose) doses were determined for the active compounds in mice models infected with Mycobacterium H37Rv via ethical permission no., NCFT/EC/16/2313 assigned to Collaborative Research Group (CRG), NCFT, New Delhi, India.

B. subtilis [20] = assay: Tube dilution MIC; conditions: Bacillus subtilis, 24 h, read-out: MIC B. subtilis
S. typhi [21] = assay: Tube dilution MIC; format: cell-based; conditions: Salmonella enterica, 24 h, read-out: MIC S. typhi

| SMILES | MIC (B. cereus [1]) | MIC (C. albicans [2]) | MIC (S. aureus [3]) | inhibition at 10 µM [4] | MBC (M. tuberculosis H37Rv [5]) | MIC (M. tuberculosis H37Rv [6]) | pIC50 [7] | MIC (A. niger [9]) | MIC (E. coli [10]) | MFC (C. albicans [11]) | MFC (A. niger [12]) | MBC (B. cereus [13]) | MBC (E. coli [14]) | MBC (B. subtilis [15]) | MBC (S. aureus [16]) | MBC (S. typhi [17]) | zone of inhibition at 50 µg/mL [18] | LD50 [19] | MIC (B. subtilis [20]) | MIC (S. typhi [21]) | other results |
| --- | --- | --- | --- | --- | --- | --- | --- | --- | --- | --- | --- | --- | --- | --- | --- | --- | --- | --- | --- | --- | --- |
| O=C(CSc1nc2ccccc2n1C(=O)c1ccccc1)Nc1ccccc1F [Compound 2, 2-(1-Benzoyl-1H-benzo[d]imidazol-2-ylthio)-N-(2-fluorophenyl)acetamide] | 31 µM (≈ 12.6 µg/mL) | 15 µM (≈ 6.08 µg/mL) | 31 µM (≈ 12.6 µg/mL) | 58.8% | 25 µg/mL (≈ 61.7 µM) | 12.5 µg/mL (≈ 30.8 µM) | 4.08 | 31 µM (≈ 12.6 µg/mL) | 31 µM (≈ 12.6 µg/mL) | 50 µg/mL (≈ 123 µM) | > 50 µg/mL | > 50 µg/mL | 50 µg/mL (≈ 123 µM) | 50 µg/mL (≈ 123 µM) | > 50 µg/mL | 50 µg/mL (≈ 123 µM) | > 20 mm | 1.81 mg/kg | 31 µM (≈ 12.6 µg/mL) | 31 µM (≈ 12.6 µg/mL) | pIC50 [8]: 5.33 |
| O=C(CSc1nc2ccccc2n1C(=O)c1ccccc1)Nc1ccccc1Cl [Compound 4, 2-(1-Benzoyl-1H-benzo[d]imidazol-2-ylthio)-N-(2-chlorophenyl)acetamide] | 30 µM (≈ 12.7 µg/mL) | 15 µM (≈ 6.33 µg/mL) | 30 µM (≈ 12.7 µg/mL) | 48.5% | 25 µg/mL (≈ 59.3 µM) | 12.5 µg/mL (≈ 29.6 µM) | 4.23 | 30 µM (≈ 12.7 µg/mL) | 30 µM (≈ 12.7 µg/mL) | 25 µg/mL (≈ 59.3 µM) | > 50 µg/mL | > 50 µg/mL | 50 µg/mL (≈ 119 µM) | > 50 µg/mL | 50 µg/mL (≈ 119 µM) | 50 µg/mL (≈ 119 µM) | > 20 mm | 1.96 mg/kg | 30 µM (≈ 12.7 µg/mL) | 30 µM (≈ 12.7 µg/mL) | pIC50 [8]: 4.45 |
| O=C(CSc1nc2ccccc2n1C(=O)c1ccccc1)Nc1ccc(F)cc1 [Compound 3, 2-(1-Benzoyl-1H-benzo[d]imidazol-2-ylthio)-N-(4-fluorophenyl)acetamide] | 31 µM (≈ 12.6 µg/mL) | 15 µM (≈ 6.08 µg/mL) | 31 µM (≈ 12.6 µg/mL) | 52.6% | 25 µg/mL (≈ 61.7 µM) | 12.5 µg/mL (≈ 30.8 µM) | 3.70 | 31 µM (≈ 12.6 µg/mL) | 31 µM (≈ 12.6 µg/mL) | 25 µg/mL (≈ 61.7 µM) | > 50 µg/mL | > 50 µg/mL | 50 µg/mL (≈ 123 µM) | > 50 µg/mL | > 50 µg/mL | > 50 µg/mL | > 20 mm | 1.87 mg/kg | 31 µM (≈ 12.6 µg/mL) | 31 µM (≈ 12.6 µg/mL) | pIC50 [8]: 4.61 |
| O=C(CSc1nc2ccccc2n1C(=O)c1ccccc1)Nc1ccccc1 [Compound 1] | 32 µM (≈ 12.4 µg/mL) | 32 µM (≈ 12.4 µg/mL) | 32 µM (≈ 12.4 µg/mL) | 62.2% | 25 µg/mL (≈ 64.5 µM) | 12.5 µg/mL (≈ 32.3 µM) | < 3.59 | 32 µM (≈ 12.4 µg/mL) | 32 µM (≈ 12.4 µg/mL) | 50 µg/mL (≈ 129 µM) | > 50 µg/mL | > 50 µg/mL | 50 µg/mL (≈ 129 µM) | > 50 µg/mL | 50 µg/mL (≈ 129 µM) | 50 µg/mL (≈ 129 µM) | > 20 mm | 1.83 mg/kg | 32 µM (≈ 12.4 µg/mL) | 32 µM (≈ 12.4 µg/mL) | pIC50 [8]: 4.11 |
| Cc1cccc(C)c1NC(=O)CSc1nc2ccccc2n1C(=O)c1ccccc1 [Compound 13, 2-(1-Benzoyl-1H-benzo[d]imidazol-2-ylthio)-N-(2,6-dimethylphenyl)acetamide] | 30 µM (≈ 12.5 µg/mL) | 15 µM (≈ 6.23 µg/mL) | 30 µM (≈ 12.5 µg/mL) | 56.5% | 25 µg/mL (≈ 60.2 µM) | 12.5 µg/mL (≈ 30.1 µM) | 4.02 | 30 µM (≈ 12.5 µg/mL) | 30 µM (≈ 12.5 µg/mL) | 25 µg/mL (≈ 60.2 µM) | > 50 µg/mL | > 50 µg/mL | 50 µg/mL (≈ 120 µM) | > 50 µg/mL | 50 µg/mL (≈ 120 µM) | > 50 µg/mL | > 20 mm | 2.14 mg/kg | 30 µM (≈ 12.5 µg/mL) | 30 µM (≈ 12.5 µg/mL) | pIC50 [8]: 3.87 |
| COc1ccccc1NC(=O)CSc1nc2ccccc2n1C(=O)c1ccccc1 [Compound 17, 2-(1-Benzoyl-1H-benzo[d]imidazol-2-ylthio)-N-(2-methoxyphenyl)acetamide] | 30 µM (≈ 12.5 µg/mL) | 15 µM (≈ 6.26 µg/mL) | 30 µM (≈ 12.5 µg/mL) | 43.5% | 25 µg/mL (≈ 59.9 µM) | 12.5 µg/mL (≈ 29.9 µM) |  | 30 µM (≈ 12.5 µg/mL) | 30 µM (≈ 12.5 µg/mL) | 50 µg/mL (≈ 120 µM) | > 50 µg/mL | > 50 µg/mL | > 50 µg/mL | > 50 µg/mL | 50 µg/mL (≈ 120 µM) | > 50 µg/mL | > 20 mm | 3.17 mg/kg | 30 µM (≈ 12.5 µg/mL) | 30 µM (≈ 12.5 µg/mL) |  |
| Cc1ccc(NC(=O)CSc2nc3ccccc3n2C(=O)c2ccccc2)cc1 [Compound 12, 2-(1-Benzoyl-1H-benzo[d]imidazol-2-ylthio)-N-p-tolylacetamide] | 31 µM (≈ 12.4 µg/mL) | 16 µM (≈ 6.42 µg/mL) | 31 µM (≈ 12.4 µg/mL) | 43.5% | 25 µg/mL (≈ 62.3 µM) | 12.5 µg/mL (≈ 31.1 µM) | 4.40 | 31 µM (≈ 12.4 µg/mL) | 31 µM (≈ 12.4 µg/mL) | 25 µg/mL (≈ 62.3 µM) | > 50 µg/mL | > 50 µg/mL | 50 µg/mL (≈ 125 µM) | > 50 µg/mL | > 50 µg/mL | 50 µg/mL (≈ 125 µM) | > 20 mm | 1.85 mg/kg | 31 µM (≈ 12.4 µg/mL) | 31 µM (≈ 12.4 µg/mL) | pIC50 [8]: 3.90 |
